Data: patent US10760110B2, “Antibiotic testing and screening system” (priority 2017, dated 2020)
Like-named read-outs stand apart in the source and are kept apart here.

Tested on: K. pneumoniae NVT1001 strains with ESBL or AmpC β-lactamase plasmids
Experiment: Etest MIC of β-lactams, OmpK35/36 loss, ΔramR and/or extended-spectrum β-lactamase and AmpC β-lactamase (Table 8)
Format: cell-based, Klebsiella pneumoniae
Conditions: for MIC: Klebsiella pneumoniae
Method: DNA fragments of the resistance genes along with their flanking regions were amplified from clinical plasmids via PCR with specific primer pairs. The resulting PCR fragments were digested and then cloned into the plasmid pACYC177 or pACYC184. The resulting plasmids were then transformed into K. pneumoniae strain NVT1001 via electroporation. The recombinant bacteria were plated onto LB agar plates containing kanamycin (50 mg/L) or chloramphenicol (50 mg/L), and the presence of the cloned gene was confirmed via PCR and DNA sequencing.
The MICs of antibiotics were determined using the Etest (Biodisk AB, Sweden) according to the manufacturer's instructions. The MICs from the Etest, which fall between standard two-fold dilutions, were rounded up to the next highest two-fold value. The MICs of ceftazidime and cefotaxime against K. pneumoniae NVT1001 harbouring the pACYC177 plasmid with blaOXA-48 were further determined using a broth microdilution test according to the recommendations of the CLSI,^25 and the results were interpreted according to the breakpoints established by the CLSI in 2017.^25 Meanwhile, due to the lack of CLSI breakpoints in 2016 and 2017, the results for cephalothin were interpreted according to the breakpoints established by the CLSI in 2015,^26 and the results for moxifloxacin were interpreted according to the breakpoints established by the EUCAST in 2017.^27

[1] = CMY-2 on pACYC177, WT (NVT1001), read-out: MIC
[2] = CMY-2 on pACYC177, Δ35 (ΔompK35 mutant)
[3] = CMY-2 on pACYC177, Δ35/36 (ΔompK35/36 mutant)
[4] = CMY-2 on pACYC177, Δ36 (ΔompK36 mutant)
[5] = CMY-2 on pACYC177, ΔramR mutant
[6] = CMY-2 on pACYC177, ΔramRΔ35 (ΔramRΔompK35 mutant)
[7] = CMY-2 on pACYC177, ΔramRΔ35/36 (ΔramRΔompK35/36 mutant)
[8] = CMY-2 on pACYC177, ΔramRΔ36 (ΔramRΔompK36 mutant)
[9] = CTX-M-14 on pACYC177, WT (NVT1001), read-out: MIC
[10] = CTX-M-14 on pACYC177, Δ35 (ΔompK35 mutant)
[11] = CTX-M-14 on pACYC177, Δ35/36 (ΔompK35/36 mutant)
[12] = CTX-M-14 on pACYC177, Δ36 (ΔompK36 mutant)
[13] = CTX-M-14 on pACYC177, ΔramR mutant
[14] = CTX-M-14 on pACYC177, ΔramRΔ35 (ΔramRΔompK35 mutant)
[15] = CTX-M-14 on pACYC177, ΔramRΔ35/36 (ΔramRΔompK35/36 mutant)
[16] = CTX-M-14 on pACYC177, ΔramRΔ36 (ΔramRΔompK36 mutant)
[17] = CTX-M-15 on pACYC177, WT (NVT1001), read-out: MIC
[18] = CTX-M-15 on pACYC177, Δ35 (ΔompK35 mutant)
[19] = CTX-M-15 on pACYC177, Δ35/36 (ΔompK35/36 mutant)
[20] = CTX-M-15 on pACYC177, Δ36 (ΔompK36 mutant)
[21] = CTX-M-15 on pACYC177, ΔramR mutant
[22] = CTX-M-15 on pACYC177, ΔramRΔ35 (ΔramRΔompK35 mutant)
[23] = CTX-M-15 on pACYC177, ΔramRΔ35/36 (ΔramRΔompK35/36 mutant)
[24] = CTX-M-15 on pACYC177, ΔramRΔ36 (ΔramRΔompK36 mutant)
[25] = DHA-1-AmpR on pACYC177, WT (NVT1001), read-out: MIC
[26] = DHA-1-AmpR on pACYC177, Δ35 (ΔompK35 mutant)
[27] = DHA-1-AmpR on pACYC177, Δ35/36 (ΔompK35/36 mutant)
[28] = DHA-1-AmpR on pACYC177, Δ36 (ΔompK36 mutant)
[29] = DHA-1-AmpR on pACYC177, ΔramR mutant
[30] = DHA-1-AmpR on pACYC177, ΔramRΔ35 (ΔramRΔompK35 mutant)
[31] = DHA-1-AmpR on pACYC177, ΔramRΔ35/36 (ΔramRΔompK35/36 mutant)
[32] = DHA-1-AmpR on pACYC177, ΔramRΔ36 (ΔramRΔompK36 mutant)
[33] = SHV-12 on pACYC177, WT (NVT1001), read-out: MIC
[34] = SHV-12 on pACYC177, Δ35 (ΔompK35 mutant)
[35] = SHV-12 on pACYC177, Δ35/36 (ΔompK35/36 mutant)
[36] = SHV-12 on pACYC177, Δ36 (ΔompK36 mutant)
[37] = SHV-12 on pACYC177, ΔramR mutant
[38] = SHV-12 on pACYC177, ΔramRΔ35 (ΔramRΔompK35 mutant)
[39] = SHV-12 on pACYC177, ΔramRΔ35/36 (ΔramRΔompK35/36 mutant)
[40] = SHV-12 on pACYC177, ΔramRΔ36 (ΔramRΔompK36 mutant)
[41] = no supplemental plasmid, WT (NVT1001), read-out: MIC
[42] = no supplemental plasmid, Δ35 (ΔompK35 mutant)
[43] = no supplemental plasmid, Δ35/36 (ΔompK35/36 mutant)
[44] = no supplemental plasmid, Δ36 (ΔompK36 mutant)
[45] = no supplemental plasmid, ΔramR mutant
[46] = no supplemental plasmid, ΔramRΔ35 (ΔramRΔompK35 mutant)
[47] = no supplemental plasmid, ΔramRΔ35/36 (ΔramRΔompK35/36 mutant)
[48] = no supplemental plasmid, ΔramRΔ36 (ΔramRΔompK36 mutant)

CC(C)(O/N=C(\C(=O)N[C@@H]1C(=O)N2C(C(=O)[O-])=C(C[n+]3ccccc3)CS[C@H]12)c1csc(N)n1)C(=O)O [Ceftazidime]
16 µg/mL: MIC [15] | MIC [25]
0.5 µg/mL: MIC [42] | MIC [44]
8 µg/mL: MIC [11] | MIC [13] | MIC [14] | MIC [16]
1 µg/mL: MIC [9] | MIC [43]
128 µg/mL: MIC [26] | MIC [31] | MIC [36]
0.25 µg/mL: MIC [41]
2 µg/mL: MIC [12] | MIC [45] | MIC [46] | MIC [47] | MIC [48]
256 µg/mL: MIC [21]
> 256 µg/mL: MIC [1] | MIC [2] | MIC [3] | MIC [4] | MIC [5] | MIC [6] | MIC [7] | MIC [8] | MIC [18] | MIC [19] | MIC [22] | MIC [23] | MIC [24] | MIC [27] | MIC [34] | MIC [35] | MIC [37] | MIC [38] | MIC [39] | MIC [40]
4 µg/mL: MIC [10]
32 µg/mL: MIC [28]
64 µg/mL: MIC [17] | MIC [20] | MIC [29] | MIC [30] | MIC [32] | MIC [33]

CO/N=C(\C(=O)N[C@@H]1C(=O)N2C(C(=O)O)=C(COC(N)=O)CS[C@H]12)c1ccco1 [Cefuroxime]
256 µg/mL: MIC [1] | MIC [2] | MIC [37]
64 µg/mL: MIC [33] | MIC [34] | MIC [46]
16 µg/mL: MIC [44]
128 µg/mL: MIC [36] | MIC [38] | MIC [47]
32 µg/mL: MIC [43] | MIC [45]
> 256 µg/mL: MIC [3] | MIC [4] | MIC [5] | MIC [6] | MIC [7] | MIC [8] | MIC [9] | MIC [10] | MIC [11] | MIC [12] | MIC [13] | MIC [14] | MIC [15] | MIC [16] | MIC [17] | MIC [18] | MIC [19] | MIC [20] | MIC [21] | MIC [22] | MIC [23] | MIC [24] | MIC [25] | MIC [26] | MIC [27] | MIC [28] | MIC [29] | MIC [30] | MIC [31] | MIC [32] | MIC [35] | MIC [39] | MIC [40] | MIC [48]
8 µg/mL: MIC [42]
4 µg/mL: MIC [41]

CC(=O)OCC1=C(C(=O)O)N2C(=O)[C@@H](NC(=O)Cc3cccs3)[C@H]2SC1 [Cephalothin]
256 µg/mL: MIC [43]
64 µg/mL: MIC [45] | MIC [46]
> 256 µg/mL: MIC [1] | MIC [2] | MIC [3] | MIC [4] | MIC [5] | MIC [6] | MIC [7] | MIC [8] | MIC [9] | MIC [10] | MIC [11] | MIC [12] | MIC [13] | MIC [14] | MIC [15] | MIC [16] | MIC [17] | MIC [18] | MIC [19] | MIC [20] | MIC [21] | MIC [22] | MIC [23] | MIC [24] | MIC [25] | MIC [26] | MIC [27] | MIC [28] | MIC [29] | MIC [30] | MIC [31] | MIC [32] | MIC [33] | MIC [34] | MIC [35] | MIC [36] | MIC [37] | MIC [38] | MIC [39] | MIC [40] | MIC [47] | MIC [48]
16 µg/mL: MIC [44]
8 µg/mL: MIC [41] | MIC [42]

C[C@@H](O)[C@H]1C(=O)N2C(C(=O)O)=C(S[C@@H]3CN[C@H](CNS(N)(=O)=O)C3)[C@H](C)[C@H]12 [Doripenem]
0.25 µg/mL: MIC [1] | MIC [2] | MIC [20] | MIC [28] | MIC [48]
0.03 µg/mL: MIC [45] | MIC [46]
1 µg/mL: MIC [4] | MIC [11] | MIC [35]
0.5 µg/mL: MIC [15] | MIC [16] | MIC [39] | MIC [40] | MIC [47]
2 µg/mL: MIC [23] | MIC [24]
8 µg/mL: MIC [3] | MIC [27]
4 µg/mL: MIC [7] | MIC [8] | MIC [19] | MIC [31] | MIC [32]
0.125 µg/mL: MIC [5] | MIC [6] | MIC [9] | MIC [10] | MIC [12] | MIC [17] | MIC [18] | MIC [21] | MIC [22] | MIC [25] | MIC [26] | MIC [29] | MIC [30] | MIC [33] | MIC [34] | MIC [36] | MIC [43]
no significant (≥4-fold) effects: effects on the MIC (production of ESBLs tested alone) | effects on the MIC (strains with ΔramR, with or without ESBLs or AmpC β-lactamases)
0.06 µg/mL: MIC [13] | MIC [14] | MIC [37] | MIC [38] | MIC [41] | MIC [42] | MIC [44]
